Assay results reported in publication PMC10656490, “Sequence-based prediction of the intrinsic solubility of peptides containing non-natural amino acids” (Nature Communications, 2023).
Read-outs that look alike come from different tables or passages of the source. Where a SMILES comes first, the peptide text is derived from it. [ ]: non-standard residue; d: D form. Cha = N[C@@H](CC1CCCCC1)C(=O)O; Cit = NC(=O)NCCC[C@H](N)C(=O)O; Nle = CCCC[C@H](N)C(=O)O; Aib = CC(C)(N)C(=O)O

Columns and labels:
[1] = Ammonium sulphate (AMS) precipitation relative solubility assay (18 A variants); assay type: physicochemical; conditions: for solubility of 18 A variants (in words): pH 7
Description: (§1) Relative solubility was measured using a recently developed PEG precipitation assay. For all PYY variants the standard assay worked well, and no changes had to be implemented (Fig. 2a). […] Moreover, to ensure that the results stemming from the AMS assay are consistent and reliable, we performed the 18 A experiments twice independently on different days. The results confirmed that they are indeed replicable, and we were therefore confident to use them for the validation of our approach (Supplementary Fig. 3). […] Even at final concentrations of 0.33 mg/mL (instead of 1 mg/mL) most variants remained insoluble. We used ultracentrifugation to determine the relative solubilities of the GLP-1 variants (Table 3). To confirm the reliability of this method we replicated the results on a different day with the same stock solutions (Supplementary Fig. 4).
(§2) Aliquots of 1 mg were prepared from the purified and lyophilised stocks. […] Briefly, a precipitant is titrated in increasing concentration to a fixed concentration of protein to induce precipitation of the protein. The samples are incubated for 48 h at 4° after mixing. The samples are centrifuged and the remaining protein concentration is measured in the supernatant using a plate reader. PYY and 18 A variants were dissolved in 10 mM citrate 10 mM phosphate buffer at pH 7 for a final concentration of 3 mg/mL. The assay was run with 50% 6000 PEG for PYY and with 3.8 M AMS for 18 A. To improve throughput, a multichannel robot was employed to measure several peptides at once with the workflow being kept the same as described previously. […] 120 µL of each sample were centrifuged using an OptimaTLX Ultracentrifuge and spinning for 30 min at 500,000 g at 4 °C. The supernatant was removed, and the peptide concentration was measured using a NanoDrop.

[2] = Solubility by ultracentrifugation (GLP-1 variants); assay type: physicochemical; conditions: for solubility: 10 mM citrate 10 mM phosphate buffer, pH 7, GLP-1 variants, 2 mg/mL in 10 mM citrate 10 mM phosphate pH 7, 30 min 500,000 g 4 °C
Description: as §1, §2

[3] = 18A variants, precipitation midpoint, second run, Figure S3
[4] = source data Supplementary Fig. 4, GLP-1 variants, 2 stands where Table 3 prints S, in mg/mL

Compound | PEG1/2 ([1]; 18A variants, Figure 3b) | Second Run [1, 3] | also measured
CC(=O)N[C@@H](CC(=O)O)C(=O)N[C@@H](Cc1c[nH]c2ccccc12)C(=O)N[C@@H](Cc1ccccc1)C(=O)NC(C)(C)C(=O)N[C@@H](C)C(=O)N[C@@H](Cc1ccccc1)C(=O)N[C@@H](Cc1ccc(O)cc1)C(=O)N[C@@H](CC(=O)O)C(=O)N[C@@H](CCCCN)C(=O)N[C@H](C(=O)N[C@@H](C)C(=O)N[C@@H](CCC(=O)O)C(=O)N[C@@H](CCCCN)C(=O)N[C@@H](CC1CCCCC1)C(=O)N[C@@H](CCCCN)C(=O)N[C@@H](CCC(=O)O)C(=O)N[C@@H](C)C(=O)N[C@@H](Cc1ccccc1)C(N)=O)C(C)C [Aib, Cha] (Ac-DWF[Aib]AFYDKVAEK[Cha]KEAF-NH2) | 1.604 | 1.21 | 
CC(=O)N[C@@H](CC(=O)O)C(=O)N[C@@H](Cc1c[nH]c2ccccc12)C(=O)N[C@@H](CC1CCCCC1)C(=O)N[C@@H](CCCCN)C(=O)N[C@@H](C)C(=O)N[C@@H](Cc1ccccc1)C(=O)N[C@@H](Cc1ccc(O)cc1)C(=O)N[C@@H](CC(=O)O)C(=O)N[C@@H](CCCCN)C(=O)N[C@H](C(=O)N[C@@H](CC1CCCCC1)C(=O)N[C@@H](CCC(=O)O)C(=O)N[C@@H](CCCCN)C(=O)N[C@@H](Cc1ccccc1)C(=O)N[C@@H](CCCCN)C(=O)N[C@@H](CCC(=O)O)C(=O)N[C@@H](C)C(=O)N[C@@H](Cc1ccccc1)C(N)=O)C(C)C [Cha, Cha] (Ac-DW[Cha]KAFYDKV[Cha]EKFKEAF-NH2) | 0 | 0 | 
CCCC[C@H](NC(=O)[C@H](CCC(=O)O)NC(=O)[C@H](CCCCN)NC(=O)[C@H](Cc1ccccc1)NC(=O)[C@H](CCCCN)NC(=O)[C@H](CCC(=O)O)NC(=O)[C@H](C)NC(=O)[C@@H](NC(=O)[C@H](CCCCN)NC(=O)[C@H](CC(=O)O)NC(=O)[C@H](Cc1ccc(O)cc1)NC(=O)[C@H](Cc1ccccc1)NC(=O)[C@H](CC1CCCCC1)NC(=O)[C@H](CCCCN)NC(=O)[C@H](Cc1ccccc1)NC(=O)[C@H](Cc1c[nH]c2ccccc12)NC(=O)[C@H](CC(=O)O)NC(C)=O)C(C)C)C(=O)N[C@@H](Cc1ccccc1)C(N)=O [Cha, Nle] (Ac-DWFK[Cha]FYDKVAEKFKE[Nle]F-NH2) | 0 | 0 | 
CCCC[C@H](NC(=O)[C@H](CCC(=O)O)NC(=O)[C@H](C)NC(=O)[C@@H](N)Cc1c[nH]cn1)C(=O)N[C@H](C(=O)N[C@@H](Cc1ccccc1)C(=O)N[C@H](C(=O)N[C@@H](CO)C(=O)N[C@@H](CC(=O)O)C(=O)N[C@H](C(=O)N[C@@H](CO)C(=O)N[C@@H](CO)C(=O)N[C@@H](Cc1ccc(O)cc1)C(=O)N[C@@H](CC(C)C)C(=O)N[C@@H](CCC(=O)O)C(=O)NCC(=O)N[C@@H](CCCNC(N)=O)C(=O)N[C@@H](C)C(=O)N[C@@H](C)C(=O)N[C@@H](CCCCN)C(=O)N[C@@H](CCC(=O)O)C(=O)N[C@@H](Cc1ccccc1)C(=O)N[C@H](C(=O)N[C@@H](C)C(=O)N[C@@H](Cc1c[nH]c2ccccc12)C(=O)N[C@@H](CC(C)C)C(=O)N[C@H](C(=O)N[C@@H](CCCCN)C(=O)NCC(=O)N[C@@H](CCCNC(=N)N)C(N)=O)C(C)C)[C@@H](C)CC)C(C)C)[C@@H](C)O)[C@@H](C)O [Compound 10] (H-HAE[Nle]TFTSDVSSYLEG[Cit]AAKEFIAWLVKGR-NH2; N-terminus assumed) |  |  | solubility ([2]; run 1, read-out: Run 1 solubility (peptide concentration in supernatant)): 150 µg/mL; solubility ([2]; run 2, read-out: Run 2 solubility (peptide concentration in supernatant)): 120 µg/mL; Ultracentrifugation ([2]; GLP1 variants, Figure 3c, in mg/mL): 0.1367; First Run [2, 4]: 0.15; Second Run [2, 4]: 0.1234
CC(=O)N[C@@H](CC(=O)O)C(=O)N[C@@H](Cc1c[nH]c2ccccc12)C(=O)N[C@@H](Cc1ccccc1)C(=O)N[C@@H](CCCCN)C(=O)N[C@@H](C)C(=O)N[C@@H](Cc1ccccc1)C(=O)N[C@@H](Cc1ccc(O)cc1)C(=O)N[C@@H](CC(=O)O)C(=O)N[C@@H](CCCCN)C(=O)N[C@H](C(=O)N[C@@H](C)C(=O)N[C@@H](CCC(=O)O)C(=O)N[C@@H](CCCCN)C(=O)N[C@@H](Cc1ccccc1)C(=O)N[C@@H](CCCCN)C(=O)N[C@@H](CCC(=O)O)C(=O)N[C@@H](C)C(=O)N[C@@H](Cc1ccccc1)C(N)=O)C(C)C [Compound 11, reference compound] (Ac-DWFKAFYDKVAEKFKEAF-NH2) |  |  | PEG1/2 [1]: 1.626; Second Run [1]: 1.058
CC(=O)N[C@@H](CC(=O)O)C(=O)N[C@@H](Cc1c[nH]c2ccccc12)C(=O)N[C@@H](CC1CCCCC1)C(=O)N[C@@H](CCCCN)C(=O)N[C@@H](C)C(=O)N[C@@H](Cc1ccccc1)C(=O)N[C@@H](Cc1ccc(O)cc1)C(=O)N[C@@H](CC(=O)O)C(=O)N[C@@H](CCCCN)C(=O)N[C@H](C(=O)N[C@@H](CC1CCCCC1)C(=O)N[C@@H](CCC(=O)O)C(=O)N[C@@H](CCCCN)C(=O)N[C@@H](Cc1ccccc1)C(=O)N[C@@H](CCCCN)C(=O)N[C@@H](CCC(=O)O)C(=O)N[C@@H](C)C(=O)N[C@@H](Cc1ccccc1)C(N)=O)C(C)C [Compound 17, [ntDAC]W[CHA]KAFYDKV[CHA]EKFKEA[ctFAD]] (Ac-DW[Cha]KAFYDKV[Cha]EKFKEAF-NH2) |  |  | solubility of 18 A variants (in words) [1]: completely insoluble
CCCC[C@H](NC(=O)[C@H](CCC(=O)O)NC(=O)[C@H](CCCCN)NC(=O)[C@H](Cc1ccccc1)NC(=O)[C@H](CCCCN)NC(=O)[C@H](CCC(=O)O)NC(=O)[C@H](C)NC(=O)[C@@H](NC(=O)[C@H](CCCCN)NC(=O)[C@H](CC(=O)O)NC(=O)[C@H](Cc1ccc(O)cc1)NC(=O)[C@H](Cc1ccccc1)NC(=O)[C@H](CC1CCCCC1)NC(=O)[C@H](CCCCN)NC(=O)[C@H](Cc1ccccc1)NC(=O)[C@H](Cc1c[nH]c2ccccc12)NC(=O)[C@H](CC(=O)O)NC(C)=O)C(C)C)C(=O)N[C@@H](Cc1ccccc1)C(N)=O [Compound 18] (Ac-DWFK[Cha]FYDKVAEKFKE[Nle]F-NH2) |  |  | solubility of 18 A variants (in words) [1]: completely insoluble
HAEGTFTS[CHA]VSSYLEGQAAK[NAC]FIAWLVKGR [Compound 9] |  |  | First Run [2]: 0; Second Run [2]: 0; Ultracentrifugation [2]: 0

Second part, led by results:

PEG1/2 ([1]; 18A variants, Figure 3b) | Second Run [1, 3] | Compound | also measured
1.618 | 0.923 | CCCC[C@H](NC(=O)[C@@H](NC(=O)[C@H](CCCCN)NC(=O)[C@H](CC(=O)O)NC(=O)[C@H](Cc1ccc(O)cc1)NC(=O)[C@H](Cc1ccccc1)NC(=O)[C@H](C)NC(=O)[C@H](CCCCN)NC(=O)[C@H](Cc1ccccc1)NC(=O)[C@H](Cc1c[nH]c2ccccc12)NC(=O)[C@H](CC(=O)O)NC(C)=O)C(C)C)C(=O)N[C@@H](CCC(=O)O)C(=O)N[C@@H](CCCCN)C(=O)N[C@@H](Cc1ccccc1)C(=O)N[C@@H](CCCCN)C(=O)N[C@@H](CCC(=O)O)C(=O)N[C@@H](C)C(=O)N[C@@H](Cc1ccccc1)C(N)=O [Compound 13] (Ac-DWFKAFYDKV[Nle]EKFKEAF-NH2) | 
1.287 | 0.527 | CC(=O)NCCCC[C@H](NC(=O)[C@@H](NC(=O)[C@H](CCCCN)NC(=O)[C@H](CC(=O)O)NC(=O)[C@H](Cc1ccc(O)cc1)NC(=O)[C@H](Cc1ccccc1)NC(=O)[C@H](C)NC(=O)[C@H](CCCCN)NC(=O)[C@H](Cc1ccccc1)NC(=O)[C@H](Cc1c[nH]c2ccccc12)NC(=O)[C@H](CC(=O)O)NC(C)=O)C(C)C)C(=O)N[C@@H](CCC(=O)O)C(=O)N[C@@H](CCCCN)C(=O)N[C@@H](Cc1ccccc1)C(=O)N[C@@H](CCCCN)C(=O)N[C@@H](CCC(=O)O)C(=O)N[C@@H](C)C(=O)N[C@@H](Cc1ccccc1)C(N)=O [Compound 14] (Ac-DWFKAFYDKVK(Ac)EKFKEAF-NH2) | 
1.783 | 1.487 | CC(=O)N[C@@H](CC(=O)O)C(=O)N[C@@H](Cc1c[nH]c2ccccc12)C(=O)N[C@@H](Cc1ccccc1)C(=O)N[C@@H](CCCCN)C(=O)N[C@@H](C)C(=O)N[C@@H](Cc1ccccc1)C(=O)N[C@@H](Cc1ccc(O)cc1)C(=O)N[C@@H](CC(=O)O)C(=O)N[C@@H](CCCCN)C(=O)N[C@H](C(=O)NC(C)(C)C(=O)N[C@@H](CCC(=O)O)C(=O)N[C@@H](CCCCN)C(=O)N[C@@H](Cc1ccccc1)C(=O)N[C@@H](CCCCN)C(=O)N[C@@H](CCC(=O)O)C(=O)N[C@@H](C)C(=O)N[C@@H](Cc1ccccc1)C(N)=O)C(C)C [Compound 15] (Ac-DWFKAFYDKV[Aib]EKFKEAF-NH2) | 
1.901 | 1.251 | CC(=O)N[C@@H](CC(=O)O)C(=O)N[C@@H](Cc1c[nH]c2ccccc12)C(=O)N[C@@H](Cc1ccccc1)C(=O)N[C@@H](CCCCN)C(=O)N[C@@H](C)C(=O)N[C@@H](Cc1ccccc1)C(=O)N[C@@H](Cc1ccc(O)cc1)C(=O)N[C@@H](CC(=O)O)C(=O)N[C@@H](CCCCN)C(=O)N[C@H](C(=O)N[C@@H](CCCNC(N)=O)C(=O)N[C@@H](CCC(=O)O)C(=O)N[C@@H](CCCCN)C(=O)N[C@@H](Cc1ccccc1)C(=O)N[C@@H](CCCCN)C(=O)N[C@@H](CCC(=O)O)C(=O)N[C@@H](C)C(=O)N[C@@H](Cc1ccccc1)C(N)=O)C(C)C [Compound 16] (Ac-DWFKAFYDKV[Cit]EKFKEAF-NH2) | 
